{
  "source": "paper PMC8218751",
  "about": "“Visualizing Borrelia burgdorferi Infection Using a Small-Molecule Imaging Probe” (Journal of Clinical Microbiology, 2021)",
  "key": {"T. denticola HtpG": {"target": "T. denticola HtpG (Treponema denticola, UniProt P61188)", "sequence (P61188 whole entry)": "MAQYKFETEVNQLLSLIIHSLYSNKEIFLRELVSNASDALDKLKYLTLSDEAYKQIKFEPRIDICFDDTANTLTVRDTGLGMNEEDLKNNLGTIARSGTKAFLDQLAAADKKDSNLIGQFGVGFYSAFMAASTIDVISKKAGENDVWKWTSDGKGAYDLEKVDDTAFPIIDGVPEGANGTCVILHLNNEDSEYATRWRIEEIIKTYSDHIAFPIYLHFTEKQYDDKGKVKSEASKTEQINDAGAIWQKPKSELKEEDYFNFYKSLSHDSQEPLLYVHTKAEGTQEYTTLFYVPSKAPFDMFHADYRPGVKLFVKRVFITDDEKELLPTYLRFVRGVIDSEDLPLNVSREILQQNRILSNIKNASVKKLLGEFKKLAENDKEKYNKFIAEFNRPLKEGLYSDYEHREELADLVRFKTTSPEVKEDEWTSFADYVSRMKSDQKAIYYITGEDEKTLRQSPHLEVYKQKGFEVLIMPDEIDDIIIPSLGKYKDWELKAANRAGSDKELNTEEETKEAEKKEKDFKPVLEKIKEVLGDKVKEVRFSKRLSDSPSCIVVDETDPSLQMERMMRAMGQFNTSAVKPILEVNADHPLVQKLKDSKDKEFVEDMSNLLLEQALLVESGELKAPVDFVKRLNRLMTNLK", "assay": "FLECS assay, elution of GFP-HtpG from ATP Sepharose", "assay_type": "binding", "details": "in words", "procedure": "Escherichia coli (strain BL21/DE3) genomic DNA was isolated from a lab culture generated from the cloning/expression bacterium (ThermoFisher catalog no. EC0114) by overnight proteinase K digestion at 56°C, high-salt clarification, and ethanol precipitation. B. burgdorferi (strain B31) and Treponema denticola genomic DNAs were obtained from the American Type Culture Collection (Manassas, VA; ATCC 35210 and 35405, respectively). Human Hsp90-alpha sequences were derived from cDNA generated from total mRNA of the human breast epithelial line, MCF10A. HtpG DNA sequences were PCR cloned from these DNAs using primers designed to allow in-frame cloning with GFP in the isopropyl-β-D-thiogalactopyranoside (IPTG)-inducible bacterial expression vector. 1GFP (pET His6 GFP TEV [tobacco etch virus] LIC [ligation-independent cloning] vector) was a gift from Scott Gradia (Addgene plasmid #29663; http://n2t.net/addgene:29663; RRID:Addgene_29663). Fusion protein cloning was done using the ligation-independent cloning procedure via single-nucleotide T4 DNA polymerase treatment of vector and purified PCR products followed by annealing of complementary single-strand ends before transformation into DH5 E. coli. Proper fusion junctions and fidelity of cloned inserts were confirmed by sequencing, and then the plasmid was transformed into E. coli BL21(DE3) for protein expression. Fusion protein synthesis was induced by incubation with 1 mM IPTG or autoinduction ([17]). Production of GFP-HtpG/Hsp90 was confirmed by identification of GFP and HtpG peptides with matrix-assisted laser desorption ionization (MALDI) using an AB Sciex 5800 time of flight (TOF)/TOF mass spectrometer in the induced band identified on an SDS-PAGE gel. To complete binding curves, several liters of induced cultures was generated, pelleted with centrifugation of 3,150 × g for 15 min, flash frozen in liquid nitrogen, and then stored at −80°C until subsequent fluorescent-linked enzyme chemoproteomic strategy (FLECS) analysis.\nγ-linked ATP Sepharose matrix was generated as described previously by the Haystead lab ([18]). BL21 bacterial pellets expressing GFP-fusion proteins of E. coli, B. burgdorferi, and T. denticola HtpGs and human Hsp90 were lysed with B-PER complete bacterial protein extraction reagent (Thermo Scientific catalog number 89821) and centrifuged at 96,000 relative centrifugal force (RCF) (Beckman Coulter type 45 Ti fixed-angle rotor) to pellet insoluble BL21 material. The clarified lysate was added to a column containing ATP-bound Sepharose. The column was washed with low-salt buffer (150 mM NaCl, 25 mM HEPES, pH 7.4, 1 mM dithiothreitol [DTT], and 60 mM MgCl2), followed by high-salt buffer (1 M NaCl, 25 mM HEPES, pH 7.4, 1 mM DTT, 0.1% IGEPAL, and 60 mM MgCl2) and once again low-salt buffer to remove unbound protein. Next, the resin with bound proteins (50 μl) was transferred to a 0.2-μm polyvinylidene fluoride filter 96-well plate (Corning) sitting on top of a black flat-bottomed 96-well catch plate (Corning). Small molecules or ATP was added to each well (50 μl), and the plates were centrifuged using an Eppendorf 5810 centrifuge at 1,100 rpm (220 RCF) for 1 min. The eluted proteins were measured in a fluorescent plate reader to detect the GFP. Some compounds are autofluorescent, and so to confirm fusion protein elution, samples were analyzed by classic SDS-PAGE methods followed by silver staining and MALDI mass spectrometry using a AB Sciex 5800 TOF/TOF mass spectrometer.\nSubtle single amino acid differences are present within the catalytic clefts of these proteins, especially between residues that contact the nucleotide. […] We therefore reasoned that these differences may be sufficient to design small molecules that can similarly discriminate HtpG of stealth organisms. To test this hypothesis, we utilized a fluorescent-linked enzyme chemoproteomic strategy (FLECS) assay to test known Hsp90 inhibitors ([18]) for binding to various HtpG constructs. […]"}, "B. burgdorferi": {"tested_on": "B. burgdorferi", "assay": "Fixed or denatured B. burgdorferi imaging, flagellin costaining and CLEM", "assay_type": "cell-based, Borrelia burgdorferi", "procedure": "Bacterial cultures in logarithmic phase were washed and resuspended in phosphate-buffered saline (PBS). Suspension was added to a positively charged slide, and an equal volume of 3:1 methanol-acetic acid was added to the suspension for 5 min. Slides were washed with 0.01% Tween 20/PBS (PBS-T) followed by PBS. Ten percent nonfat dry milk/PBS blocking solution was added for 45 min. Slides were washed with PBS and incubated for 45 min with 1:500 flagellin antibody (Rockland 200-401-C14) diluted in 1% nonfat dry milk/PBS. Slides were washed with PBS-T and then incubated for 30 min with FITC-conjugated anti-rabbit (Invitrogen catalog number A11008; 1:500 dilution), containing 10 μM HS-198. […].\nCorrelative light electron microscopy (CLEM) was performed by Shannon Modla and Jeff Caplan at the bioimaging center of the Delaware Biotechnology Institute. Cells were attached to an Ibidi μ-dish containing an imprinted 500-μm cell location grid using 4% paraformaldehyde (PFA) for 20 min. Cells were then incubated with 10 μM HS-198 for 10 min followed by a PBS wash. PBS filled the dish to the top for transport to the Delaware Institute for further processing. The cells were then imaged using Zeiss 880 Airyscan. […]"}},
  "note": "“Also recorded” adds a separate entry of the source.",
  "data": [
    {"smiles": "Cc1nn(-c2ccc(C(=O)N(C)C)c(NCCCOCCOCCOCCOCCOCCCNCc3ccc(C(=C\\C=C4/N(CCCCS(=O)(=O)O)c5ccccc5C4(C)C)/C=C/C4=[N+](CCCCS(=O)(=O)[O-])c5ccccc5C4(C)C)cc3)c2)c2c1C(=O)CC(C)(C)C2", "note": "[HS-198]", "values": [
      {"measurement": "Release of T. denticola HtpG from immobilized ATP resin", "setting": "T. denticola HtpG", "result": "unable to release; also recorded: inactive"},
      {"measurement": "Localization within the spirochete", "setting": "B. burgdorferi; 10 μM, flagellin antibody costaining, CLEM", "result": "accumulated inside the protoplasmic cylinder"},
      {"measurement": "Staining of denatured spirochetes", "setting": "B. burgdorferi; heat denaturation (5 min at 90°C or 15 min at 50°C) or alcohol fixation (2:1 ethanol), data not shown", "result": "capable of staining spirochetes"}
    ]}
  ]
}
